In EP0320366A1, “Monoclonal antibodies against phospholipase A2 from the venom of snakes of the families Elapides and Hidrophides, methods for their preparation and their use in detecting poisoning caused by these snake families” (COMMISSARIAT A L'ENERGIE ATOMIQUE, priority 1987, dated 1989):

Columns and labels:
[1] = target: T1, notexine (PLA₂ du venin de Notechis scutatus scutatus), notexine seule (Notechis scutatus scutatus, UniProt P00608); test: Enzymatic activity of notexin by pH-stat titration of released fatty acids, Lineweaver-Burk analysis; type: biochemical; details: substrate: phosphatidylcholine emulsion 7,5-82,5 mM with sodium deoxycholate (ratio 3,7), CaCl₂ 20 mM, NaCl 0,12 M, pH 8, 40°C; notexin 0,5 µg/4 ml; read graphically; also printed as 0,034 M
T1 sequence (P00608 1-119): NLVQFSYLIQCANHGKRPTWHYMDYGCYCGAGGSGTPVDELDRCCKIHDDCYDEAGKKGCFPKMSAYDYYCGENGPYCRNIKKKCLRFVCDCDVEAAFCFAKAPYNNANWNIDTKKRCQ
Procedure: (§1) La mesure de l'activité enzymatique est réalisée à l'aide d'un appareil pH stat (Methrom). Les acides gras libérés sont titrés à pH constant (pH = 8), par une solution d'hydroxyde de Na 0,01 N à 40°C.
(§2) Le substrat est une émulsion de phosphatidylcholine (Halpert - Eaker, 1975), dans une solution de CaCl₂ 20 mM, NaCl 0,12 M, en présence de désoxycholate de sodium.
(§3) Le rapport concentration finale de phosphatidylcholine/concentration finale de désoxycholate de sodium est maintenu constant, égal à 3,7.
(§4) Les solutions initiales sont : phosphatidylcholine : 600 mM dans l'éthanol, désoxycholate de sodium : 270 mM dans H₂O. Le volume réactionnel final est de 4 ml.
(§5) Les volumes de soude ajoutés pour maintenir le pH constant sont enregistrés automatiquement en fonction du temps.
L'analyse cinétique de la réaction enzymatique a été faite par deux méthodes : mesure de Vi et mesure de Vmax.
Pour l'étude de Vi = f( [S] ) et 1/Vi = f(1/ [S]), à concentration de notexine constante ( [Et] = 0,5 µg/4 ml), la concentration de substrat varie de 7,5 mM à 82,5 mM. La mesure est réalisée en absence et en présence d'anticorps monoclonaux polyspécifiques MN₁, en excès molaire de 10 par rapport à la notexine. […]

[2] = target: T2, notexine (PLA₂ du venin de Notechis scutatus scutatus) en présence d'anticorps MN₁ (Notechis scutatus scutatus, UniProt P00608); test: Enzymatic activity of notexin pre-incubated with monoclonal antibody MN₁, by pH-stat titration and Lineweaver-Burk analysis; type: biochemical; details: same substrate and conditions; MN₁ in 10-fold molar excess over notexin, pre-incubated 1 h at room temperature; read graphically; also printed as 0,034 M
T2 sequence (P00608 1-119): T1 sequence (P00608 1-119)
Procedure: as §1, §2, §3, §4, §5
Les anticorps monoclonaux sont dialysés pendant 24 heures dans la solution de CaCl₂ utilisée pour effectuer les mesures, afin d'éviter une modification du pH du milieu réactionnel, lors de l'addition des anticorps. Ils sont incubés avec la notexine pendant une heure à température ambinate.
L'activité enzymatique de la notexine ainsi traitée, est alors mesurée.
L'analyse cinétique de la réaction enzymatique a été faite par deux méthodes : mesure de Vi et mesure de Vmax. […]

Substance phosphatidylcholine has a Km [1] of 34 mM and a Km [2] of 34 mM.
